Assay results: patent US12662473B2, “Inhibitors for programmed cell necrosis and preparation method therefor and use thereof” (SHANGHAI INSTITUTE OF ORGANIC CHEMISTRY, CHINESE ACADEMY OF …, priority 2019, dated 2026)
Like-named read-outs stand apart in the source and are kept apart here.

Assays:
[1] = tested on: FADD−/− Jurkat cells; assay: TNF-induced programmed cell necrosis inhibition, Cell Titer-Glo viability; type: cell-based; details: Homo sapiens, Jurkat
From the text: (§1) The adopted biological assay protocol was: the programmed necroptosis effect of compounds on TNF-induced in FADD (Fas-Associated Death Domain) deficient Jurkat cells and L929 cells.
(§2) In order to verify the inhibitory effect of the compounds of the present invention on programmed cell necrosis at the cellular level, cell types closely related to the RIP1 pathway, namely FADD deficient Jurkat cells (human peripheral blood leukemia T cell line) and L929 cells, were selected. Two different stimulation methods were used: tumor necrosis factor (TNFα) used alone, or TNFα used in combination with mitochondria-derived cysteine aspartate activator (SMAC). Cells viability was calculated by detecting chemiluminescence values, and the biological activity of the compound for inhibiting programmed cell necrosis can be obtained.
(§3) Methods: FADD deficient Jurkat cells: FADD deficient Jurkat cells (human peripheral blood leukemia T cell line) were cultured in vitro. After growing to the logarithmic growth phase, the cells were collected, centrifuged at 1000 rpm for 5 min, the supernatant was discarded, and the cell concentration was adjusted to 2.5×10^5/mL. Cells were seeded into 384-well plates, 40 μl per well. 5 μL of Smac (50 nM) diluted in cell culture medium and 5 μL of each compound were added to the corresponding wells. After pretreatment at 37° C. for 1 h, 5 μL of TNFα (50 ng/mL) diluted in cell culture medium was added to each well of the stimulation group, and 5 μL of the culture medium was added to the control group. The plate was cultured in a cell incubator (37° C., 5% CO2) for 14 h, and 15 μl of Cell Titer-Glo solution was added to each well, then incubated for 30 min at room temperature, and intracellular ATP level was measured by detecting luminescence. The unstimulated DMSO control wells were taken as 100% cell viability. L929 cells: The L929 cells (mouse fibroblasts) were cultured in vitro, digested and diluted to 6.25×10^4/ml, and the cells were seeded into 384-well plates, 40 μl per well. The plate was placed in a cell incubator (37° C., 5% CO2) for 12 hours. 5 μL of Smac (500 nM) diluted in cell culture medium and 5 μL of each compound were added to the corresponding wells. After pretreatment at 37° C. for 1 h, 5 μL of TNFα (500 ng/mL) diluted in cell culture medium was added to each well of the stimulation group, and 5 μL of the culture medium was added to the control group. After the plate was cultured for 14 h in a cell incubator (37° C., 5% CO2), 15 μl of Cell Titer-Glo solution was added to each well. The plate was incubated at room temperature for 30 min, and intracellular ATP level was measured by detecting luminescence. The unstimulated DMSO control wells were taken as 100% cell viability. EC50 values of the compounds were calculated using Prism Graphpad statistical software.
FADD deficient Jurkat cells: FADD deficient Jurkat cells (human peripheral blood leukemia T cell line) were cultured in vitro. After growing to the logarithmic growth phase, the cells were collected, centrifuged at 1000 rpm for 5 min, the supernatant was discarded, and the cell concentration was adjusted to 2.5×10^5/mL. Cells were seeded into 384-well plates, 40 μl per well. 5 μL of Smac (50 nM) diluted in cell culture medium and 5 μL of each compound were added to the corresponding wells. After pretreatment at 37° C. for 1 h, 5 μL of TNFα (50 ng/mL) diluted in cell culture medium was added to each well of the stimulation group, and 5 μL of the culture medium was added to the control group. After the plate was cultured in a cell incubator (37° C., 5% CO2) for 14 h, 15 μl of Cell Titer-Glo solution was added to each well. The mixture was incubated for 30 min at room temperature, and intracellular ATP level was measured by detecting luminescence. The unstimulated DMSO control wells were taken as 100% cell viability.

[2] = tested on: L929 cells; assay: as above; type: cell-based, mouse; details: Mus musculus, read-out: EC50 inhibitory activity on programmed cell necrosis
From the text: as §1, §2, §3
L929 cells: The L929 cells (mouse fibroblasts) were cultured in vitro, digested and diluted to 6.25×10^4/ml, and the cells were seeded into 384-well plates, 40 μl per well. The plate was placed in a cell incubator (37° C., 5% CO2) for 12 hours. 5 μL of Smac (500 nM) diluted in cell culture medium and 5 μL of each compound were added to the corresponding wells. After pretreatment at 37° C. for 1 h, 5 μL of TNFα (500 ng/mL) diluted in cell culture medium was added to each well of the stimulation group, and 5 μL of the culture medium was added to the control group. After the plate was cultured for 14 h in a cell incubator (37° C., 5% CO2), and 15 μl of Cell Titer-Glo solution was added to each well, then incubated at room temperature for 30 min, and intracellular ATP level was measured by detecting luminescence. The unstimulated DMSO control wells were taken as 100% cell viability.

[3] = 14 h, TNFa + SM164, read-out: EC50 inhibitory activity on programmed cell necrosis
[4] = TNFa, read-out: EC50 inhibitory activity on programmed cell necrosis
[5] = L929, 14 h, L929 cells (mouse), TNFa + SM164

SMILES	EC50 [1, 3] [nM]	EC50 [1, 4] [nM]	EC50 [2, 5] [nM]	EC50 ([2]; L929, L929 cells (mouse), TNFa) [nM]
CC(C)(Oc1ccc(Cl)cc1F)C(=O)N1CCCC1c1ccc(C(N)=O)cc1 (centres unmarked) [QY-5-85]	> 10000	5340	> 10000	> 10000
Cc1ccc(C2CC=NN2C(=O)C(C)(C)Oc2ccc(Cl)cc2F)cc1 (centres unmarked) [QY-6-47]	90	5	49	18
CC(C)(Oc1ccc(Cl)cc1F)C(=O)N1CCC[C@H]1c1cc(F)cc(F)c1 [QY-6-60]	707	17	402	130
CC(C)(Oc1ccc(Cl)cc1F)C(=O)N1CCC[C@H]1c1ccc(F)c(F)c1 [QY-6-61]	379	12	218	75
CC(C)(Oc1ccc(Cl)cc1F)C(=O)N1CCC[C@H]1c1ccc(F)cc1 [QY-6-62]	117	3	174	44
CNC(=O)c1ccc(OC(C)(C)C(=O)N2CCCC2c2ccc(C)cc2)c(F)c1 (centres unmarked) [QY-6-63]	> 10000	4290	7800	3150
CC(C)(Oc1ccc(Cl)cc1)C(=O)N1CCC[C@H]1c1ccccc1 [QY-6-83]	613	56	323	40
CC(C)(Oc1ccc(Cl)cc1F)C(=O)N1CCC[C@H]1c1ccccc1 [QY-6-84]	439	27	216	25
[2H]c1c([2H])c([C@]2([2H])CCCN2C(=O)C(C)(C)Oc2ccc(Cl)cc2F)c([2H])c([2H])c1C([2H])([2H])[2H] [QY-7-7]	200	5	24	1
COc1cc(OC(C)(C)C(=O)N2N=CCC2c2ccc(C)cc2)ccc1Cl (centres unmarked) [QY-7-101]	1100	630	10	11
CC(C)(Oc1ccc(Cl)cc1F)C(=O)N1N=CCC1c1ccc(Cl)cc1 (centres unmarked) [QY-8-101]	692	15	15	5.8
COc1cc(Cl)ccc1OC(C)(C)C(=O)N1CCCC1c1ccc(C)cc1 (centres unmarked) [QY-9-8]	1.6	0.43	138	0.44
COc1cc(Cl)ccc1OC(C)(C)C(=O)N1N=CCC1c1ccc(Cl)cc1 (centres unmarked) [QY-9-32]	842	26.6		35.7
COc1cc(Cl)ccc1OC(C)(C)C(=O)N1CCCC1c1ccc(Cl)cc1 (centres unmarked) [QY-9-43]	1150	0.16		21
COc1cc(Cl)ccc1OC(C)(C)C(=O)N1CCC[C@H]1c1ccc(Cl)cc1 [QY-10-1]	> 10000	> 10000	3.6	0.79
CC(=O)Nc1cc(Cl)ccc1OC(C)(C)C(=O)N1CCCC1c1ccc(Cl)cc1 (centres unmarked) [QY-10-92]	> 10000	> 10000	> 10000	> 10000
COc1cc(Cl)ccc1OC(C)(C)C(=O)N1N=CCC1c1ccc(C)cc1 (centres unmarked) [QY-10-96]	633	13.4	6.31	0.151
COc1cc(Cl)ccc1NC(C)(C)C(=O)N1CCCC1c1ccc(Cl)cc1 (centres unmarked) [QY-10-104]	794	106	66.2	13.6

SMILES	EC50 [1, 3] [nM]	EC50 [1, 4] [nM]	EC50 [2, 5] [nM]	EC50 ([2]; L929, L929 cells (mouse), TNFa) [nM]
[2H]c1c([2H])c([C@]2([2H])CCCN2C(=O)C(C)(C)Oc2ccc(Cl)cc2OC)c([2H])c([2H])c1C([2H])([2H])[2H] [QY-11-1]		4.05	2.66	0.0803
CC(C)(C(=O)N1CCCC1c1ccc(Cl)cc1)C1N=Nc2ccc(Cl)cc21 (centres unmarked) [QY-11-9A]	> 10000	> 10000	> 10000	2530
CC(C)(C(=O)N1CCCC1c1ccc(Cl)cc1)n1ncc2cc(Cl)ccc21 (centres unmarked) [QY-11-9B]	3340	2830	3440	0.00171
CC(C)(C(=O)N1CCCC1c1ccc(Cl)cc1)n1nnc2ccc(Cl)cc21 (centres unmarked) [QY-11-11A]	> 10000	> 10000	0.0772	0.0188
CC(C)(C(=O)N1CCCC1c1ccc(Cl)cc1)n1nnc2cc(Cl)ccc21 (centres unmarked) [QY-11-11B]	> 10000	> 10000	0.12	0.0192
CC(C)(C(=O)N1CCCC1c1ccc(Cl)cc1)n1ccc2cc(Cl)ccc21 (centres unmarked) [QY-11-15B]	> 10000	> 10000	> 10000	> 10000
CC(C)(C(=O)N1CCCC1c1ccc(Cl)cc1)n1cnc2ccc(Cl)cc21 (centres unmarked) [QY-11-16A]	> 10000	> 10000	> 10000	> 10000
CC(C)(C(=O)N1CCCC1c1ccc(Cl)cc1)n1cnc2cc(Cl)ccc21 (centres unmarked) [QY-11-16B]	> 10000	> 10000	> 10000	> 10000
CC(C)(Oc1ccc(C#N)cc1)C(=O)N1CCCC1c1ccc(Cl)cc1 (centres unmarked) [QY-11-36]	885	137	99.5	
CC(C)(Oc1ccc2ncsc2c1)C(=O)N1CCCC1c1ccc(Cl)cc1 (centres unmarked) [QY-11-44]	1320	212	677	0.0105
CC(C)(Oc1ccc(C#N)cc1F)C(=O)N1CCCC1c1ccc(Cl)cc1 (centres unmarked) [QY-11-45]	915	139	108	0.7
COc1cc(C#N)ccc1OC(C)(C)C(=O)N1CCCC1c1ccc(Cl)cc1 (centres unmarked) [QY-12-11]	178	6.72	16.6	6.06
[2H]c1c([2H])c([C@]2([2H])CCCN2C(=O)C(C)(C)Oc2ccc(C#N)cc2OC)c([2H])c([2H])c1C([2H])([2H])[2H] [QY-12-14]	45.3	3.65	7.63	3.16
Cn1cnc2ccc(OC(C)(C)C(=O)N3CCCC3c3ccc(Cl)cc3)cc21 (centres unmarked) [QY-12-32]	2420	535	1160	243
Cc1ccc(C2CCCN2C(=O)C(C)(C)Oc2ccc(Cl)cn2)cc1 (centres unmarked) [QY-13-42]	4900	0.0395	322	102
Cc1ccc(C2CCCN2C(=O)C(C)(C)Oc2ccc(C#N)cn2)cc1 (centres unmarked) [QY-13-68]	2420	27	4.52	2.06
Cc1ccc(C2CCCN2C(=O)C(C)(C)Oc2ncc(Cl)cn2)cc1 (centres unmarked) [QY-13-70]	> 10000	477	1930	221
Cc1ccc(C2CCCN2C(=O)C(C)(C)Nc2ncc(Cl)cn2)cc1 (centres unmarked) [QY-13-86]	> 10000	> 10000	> 10000	> 10000
